The values below come from PMC6644700 (ACS chemical biology, 2019).

In the assay the target is T1, Nicotinamide N-methyltransferase (NNMT) (Homo sapiens, UniProt P40261, C165A).
T1 sequence (P40261 1-264 C165A): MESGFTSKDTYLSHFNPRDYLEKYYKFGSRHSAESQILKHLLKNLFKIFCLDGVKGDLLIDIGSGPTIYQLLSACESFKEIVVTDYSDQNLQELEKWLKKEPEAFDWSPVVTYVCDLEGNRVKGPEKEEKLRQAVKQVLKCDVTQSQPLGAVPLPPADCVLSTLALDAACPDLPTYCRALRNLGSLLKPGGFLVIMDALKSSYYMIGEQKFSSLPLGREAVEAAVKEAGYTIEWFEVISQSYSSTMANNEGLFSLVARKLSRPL
The assay is described as follows: suicide inactivation of purified mutant with SAM. The class given is biochemical.

`Clc1ccncc1` [compound 2, 4-chloropyridine]: the “suicide inactivation of purified mutant with SAM” value is “By contrast, the C165A mutant remained sensitive”.
Take `NC(=O)c1cnccc1Cl` [compound 3, 4-chloronicotinamide]: the “suicide inactivation of purified mutant with SAM” value is listed as “By contrast, the C165A mutant remained sensitive”.
